Here are results for 5 compounds from ChEMBL document CHEMBL4118101 (Bioorg Med Chem, 2018).

In brackets after ≈: the same amount, converted by molar mass. Activity calls are given as the source filed them. The calls are words filed in the database; no cut-off is given here.

In assay [1] the test system is Candida albicans. Briefly: Induction of membrane permeabilization in Candida albicans ATCC 10231 assessed as membrane disruption at 4 times MIC after 1 hr by propidium iodide staining based fluorescence microscopy. It counts as functional, organism-based.
In assay [2] the test system is Cryptococcus neoformans. Kind of assay: Antifungal activity against Cryptococcus neoformans isolate CN2 measured after 48 hrs by CLSI M27-A3 protocol based method. It counts as functional.
Assay [3] relates to Candida albicans. Briefly: Antifungal activity against Candida albicans ATCC 10231 measured after 48 hrs by CLSI M27-A3 protocol based method. Format: functional. The conditions noted are these: ATCC 10231, 48 h.
The subject of assay [4] is Candida albicans. Kind of assay: Antifungal activity against Candida albicans ATCC 64124 measured after 48 hrs by CLSI M27-A3 protocol based method. It counts as functional.
In assay [5] the test system is Candida albicans. Briefly: Antifungal activity against fluconazole/ITC-susceptible Candida albicans ATCC MYA-2876 measured after 48 hrs by CLSI M27-A3 protocol based method. It counts as functional. The conditions noted are these: for MIC: Candida albicans, ATCC MYA-2876, 48 h.
Assay [6] relates to Candida albicans. Kind of assay: Antifungal activity against fluconazole/ITC-resistant Candida albicans ATCC 90819 measured after 48 hrs by CLSI M27-A3 protocol based method. Format: functional.
The subject of assay [7] is Candida albicans. Kind of assay: Antifungal activity against fluconazole/ITC-susceptible Candida albicans ATCC MYA-2310 measured after 48 hrs by CLSI M27-A3 protocol based method. Format: functional.
Assay [8] deals with Candida albicans. Briefly: Antifungal activity against fluconazole/ITC-resistant Candida albicans ATCC MYA-1237 measured after 48 hrs by CLSI M27-A3 protocol based method. Format: functional. The conditions noted are these: Candida albicans, ATCC MYA-1237, 48 h; read-out: MIC.
Assay [9] deals with Candida albicans. Briefly: Antifungal activity against fluconazole/ITC-resistant Candida albicans ATCC MYA-1003 measured after 48 hrs by CLSI M27-A3 protocol based method. Format: functional. The note with it: Candida albicans, ATCC MYA-1003, 48 h; read-out: MIC.
Assay [10] concerns Nakaseomyces glabratus. Kind of assay: Antifungal activity against Candida glabrata ATCC 2001 measured after 48 hrs by CLSI M27-A3 protocol based method. It counts as functional, CBS 138.
For a further assay, the system named is Pichia kudriavzevii. Briefly: Antifungal activity against Candida krusei ATCC 6258 measured after 48 hrs by CLSI M27-A3 protocol based method. It counts as functional. The conditions noted are these: for MIC: Pichia kudriavzevii, ATCC 6258, 48 h.
Assay [11] has as its system Candida parapsilosis. Briefly: Antifungal activity against Candida parapsilosis ATCC 22019 measured after 48 hrs by CLSI M27-A3 protocol based method. It counts as functional. The conditions noted are these: for MIC: Lodderomyces parapsilosis, ATCC 22019, 48 h.
For a further assay, the system named is Aspergillus nidulans. Briefly: Antifungal activity against Aspergillus nidulans ATCC 38163 measured after 48 hrs by CLSI M38-A2 protocol based method. It counts as functional. The note with it: ATCC 38163, 48 h.
Another assay deals with Aspergillus flavus. Kind of assay: Antifungal activity against Aspergillus flavus ATCC MYA-3631 measured after 48 hrs by CLSI M38-A2 protocol based method. Format: functional. The note with it: ATCC MYA-3631, 48 h.
The next assay concerns Aspergillus terreus. Kind of assay: Antifungal activity against Aspergillus terreus ATCC MYA-3633 measured after 48 hrs by CLSI M38-A2 protocol based method. It counts as functional. The note with it: ATCC MYA-3633, 48 h.
The subject of assay [12] is Nakaseomyces glabratus. Kind of assay: Antifungal activity against Candida glabrata isolate CG1 measured after 48 hrs by CLSI M27-A3 protocol based method. Format: functional.
Assay [13] deals with Nakaseomyces glabratus. Briefly: Antifungal activity against Candida glabrata isolate CG2 measured after 48 hrs by CLSI M27-A3 protocol based method. Format: functional.
The test system of assay [14] is Nakaseomyces glabratus. Kind of assay: Antifungal activity against Candida glabrata isolate CG3 measured after 48 hrs by CLSI M27-A3 protocol based method. Format: functional.
Assay [15] has as its system Candida parapsilosis. Briefly: Antifungal activity against Candida parapsilosis isolate CP1 measured after 48 hrs by CLSI M27-A3 protocol based method. It counts as functional. The conditions noted are these: for MIC: Lodderomyces parapsilosis, isolate CP1, 48 h.
For assay [16], the system named is Candida parapsilosis. Kind of assay: Antifungal activity against Candida parapsilosis isolate CP2 measured after 48 hrs by CLSI M27-A3 protocol based method. It counts as functional. The note with it: for MIC: Lodderomyces parapsilosis, isolate CP2, 48 h.
Assay [17] deals with Cryptococcus neoformans. Kind of assay: Antifungal activity against Cryptococcus neoformans isolate CN1 measured after 48 hrs by CLSI M27-A3 protocol based method. It counts as functional. The conditions noted are these: isolate CN1, 48 h.
Assay [18] deals with Cryptococcus neoformans. Briefly: Antifungal activity against Cryptococcus neoformans isolate CN3 measured after 48 hrs by CLSI M27-A3 protocol based method. It counts as functional.
Assay [19] relates to Candida parapsilosis. Kind of assay: Antifungal activity against Candida parapsilosis isolate CP3 measured after 48 hrs by CLSI M27-A3 protocol based method. It counts as functional. The note with it: for MIC: Lodderomyces parapsilosis, isolate CP3, 48 h.
Where [20] appears, read: Cryptococcus neoformans, isolate CN2, 48 h, read-out: MIC.
The mark [21] stands for this setting: Candida albicans, ATCC 64124, 48 h, read-out: MIC.
Where [22] appears, read: Candida albicans, ATCC 90819, 48 h, read-out: MIC.
[23] abbreviates: Candida albicans, ATCC MYA-2310, 48 h, read-out: MIC.
[24] abbreviates: Nakaseomyces glabratus, CBS 138, 48 h, read-out: MIC.
Setting [25] is: Nakaseomyces glabratus, 48 h, read-out: MIC.
The mark [26] stands for this setting: Nakaseomyces glabratus, isolate CG2, 48 h, read-out: MIC.
Where [27] appears, read: Cryptococcus neoformans, isolate CN3, 48 h, read-out: MIC.

In the case of `CCCCCCCCCCCCCCSC[C@H]1O[C@H](O[C@H]2[C@H](O)[C@@H](O[C@H]3O[C@H](CO)[C@@H](O)[C@H](N)[C@H]3O)[C@H](N)C[C@@H]2N)[C@H](N)[C@@H](O)[C@@H]1O`, the result with Candida albicans [1] was Active.
Turning to `OC(CNC1CCCCCCC1)(Cn1cncn1)c1ccc(F)cc1F` (configuration not stated), the MIC (in general, the lowest concentration found to suppress growth) in the assay with Cryptococcus neoformans [2] (setting [20]) is greater than 85.8 µM; against Candida albicans [3], 85.8 µM (≈ 31.3 µg/mL); in the assay with Candida albicans [4] (setting [21]) it was 85.8 µM (≈ 31.3 µg/mL); against Candida albicans [5], greater than 85.8 µM; with Candida albicans [6] (setting [22]), 85.8 µM (≈ 31.3 µg/mL); with Candida albicans [7] (setting [23]) it was 10.7 to 85.8 µM (≈ 3.9 to 31.3 µg/mL). The MIC was 85.8 µM (≈ 31.3 µg/mL) in the assay on Candida albicans [8]; greater than 85.8 µM with Candida albicans [9]; 85.8 µM (≈ 31.3 µg/mL) in the assay with Nakaseomyces glabratus [10] (setting [24]); 85.8 µM (≈ 31.3 µg/mL) with Pichia kudriavzevii; 10.7 µM (≈ 3.9 µg/mL) with Candida parapsilosis [11]; greater than 85.8 µM in the assay with Aspergillus nidulans. Besides, the minimum inhibitory concentration (MIC) was 85.8 µM (≈ 31.3 µg/mL) against Aspergillus flavus; greater than 85.8 µM against Aspergillus terreus; 85.8 µM (≈ 31.3 µg/mL) in the assay with Nakaseomyces glabratus [12] (setting [25]); 42.8 µM (≈ 15.6 µg/mL) in the assay with Nakaseomyces glabratus [13] (setting [26]); 85.8 µM (≈ 31.3 µg/mL) in the assay with Nakaseomyces glabratus [14] (setting [25]); 2.7 µM (≈ 0.984 µg/mL) in the assay with Candida parapsilosis [15]. Further, the MIC against Candida parapsilosis [16] was determined as 2.7 µM (≈ 0.984 µg/mL); in the assay on Cryptococcus neoformans [17], 21.4 µM (≈ 7.8 µg/mL); in the assay on Cryptococcus neoformans [18] (setting [27]), 42.8 µM (≈ 15.6 µg/mL); in the assay with Candida parapsilosis [19], 5.4 µM (≈ 1.97 µg/mL).
For the compound `CC[C@H](C)C[C@H](C)CCCCCCCCC(=O)N[C@H]1C[C@@H](O)[C@@H](NCCN)NC(=O)[C@@H]2[C@@H](O)CCN2C(=O)[C@H]([C@H](O)CCN)NC(=O)[C@H]([C@H](O)[C@@H](O)c2ccc(O)cc2)NC(=O)[C@@H]2C[C@@H](O)CN2C(=O)[C@H]([C@@H](C)O)NC1=O` [CASPOFUNGIN], the MIC in the assay on Cryptococcus neoformans [2] (setting [20]) worked out at 25.8 µM (≈ 28.2 µg/mL); with Candida albicans [3], 0.8 µM (≈ 0.875 µg/mL); with Candida albicans [4] (setting [21]), 0.2 µM (≈ 0.219 µg/mL); against Candida albicans [5], 0.05 µM (≈ 0.0547 µg/mL); in the assay with Candida albicans [6] (setting [22]) it was 0.1 µM (≈ 0.109 µg/mL); with Candida albicans [7] (setting [23]), 0.1 µM (≈ 0.109 µg/mL). Besides, the minimum inhibitory concentration (MIC) with Candida albicans [8] was 0.2 µM (≈ 0.219 µg/mL); with Candida albicans [9] it was 0.4 µM (≈ 0.437 µg/mL); in the assay with Nakaseomyces glabratus [10] (setting [24]) it was 0.05 µM (≈ 0.0547 µg/mL); in the assay with Pichia kudriavzevii it was 0.4 µM (≈ 0.437 µg/mL); against Candida parapsilosis [11], 1.6 µM (≈ 1.75 µg/mL); in the assay on Aspergillus nidulans, greater than 25.8 µM. Also, the MIC in the assay on Aspergillus flavus was greater than 25.8 µM; against Aspergillus terreus, greater than 25.8 µM; in the assay with Nakaseomyces glabratus [12] (setting [25]), 1.6 µM (≈ 1.75 µg/mL); in the assay with Nakaseomyces glabratus [13] (setting [26]), 0.2 µM (≈ 0.219 µg/mL); in the assay with Nakaseomyces glabratus [14] (setting [25]), 0.8 µM (≈ 0.875 µg/mL); in the assay on Candida parapsilosis [15], 0.4 µM (≈ 0.437 µg/mL). Besides, the MIC against Candida parapsilosis [16] amounted to 0.4 µM (≈ 0.437 µg/mL); in the assay with Cryptococcus neoformans [17], 12.9 µM (≈ 14.1 µg/mL); with Cryptococcus neoformans [18] (setting [27]), 12.9 µM (≈ 14.1 µg/mL); with Candida parapsilosis [19], 0.4 µM (≈ 0.437 µg/mL).
Take `OC(Cn1cncn1)(Cn1cncn1)c1ccc(F)cc1F` [FLUCONAZOLE]: the MIC with Cryptococcus neoformans [2] is greater than 102.1 µM; against Candida albicans [4], greater than 408.1 µM; in the assay on Candida albicans [6], greater than 408.1 µM; in the assay with Candida albicans [7], greater than 408.1 µM; in the assay on Nakaseomyces glabratus [10] it was “>=102.2 - 204.1 uM”; with Nakaseomyces glabratus [12], greater than 102.1 µM. The MIC in the assay on Nakaseomyces glabratus [13], with Nakaseomyces glabratus [14] and with Cryptococcus neoformans [18] was greater than 102.1 µM throughout. Moreover, the “MIC=<50” value was 50.9 µM (≈ 15.6 µg/mL) with Candida albicans [5]; greater than 102.2 µM with Pichia kudriavzevii; 6.4 µM (≈ 1.96 µg/mL) with Candida parapsilosis [11]; 3.2 µM (≈ 0.98 µg/mL) in the assay with Candida parapsilosis [15]; 3.2 µM (≈ 0.98 µg/mL) against Candida parapsilosis [16]; 3.2 µM (≈ 0.98 µg/mL) in the assay on Candida parapsilosis [19].
Turning to `CC(C)c1ccc(NCC(O)(Cn2cncn2)c2ccc(F)cc2F)cc1` (configuration not stated), the MIC in the assay with Cryptococcus neoformans [2] (setting [20]) is 84 µM (≈ 31.3 µg/mL); in the assay on Candida albicans [3], greater than 84 µM; in the assay with Candida albicans [4] (setting [21]) it was greater than 84 µM; in the assay on Candida albicans [5], greater than 84 µM; with Candida albicans [6] (setting [22]), 84 µM (≈ 31.3 µg/mL); with Candida albicans [7] (setting [23]), 84 µM (≈ 31.3 µg/mL). Further, the MIC is 84 µM (≈ 31.3 µg/mL) with Candida albicans [8]; 84 µM (≈ 31.3 µg/mL) in the assay on Candida albicans [9]; 20.9 to 84 µM (≈ 7.78 to 31.3 µg/mL) in the assay with Nakaseomyces glabratus [10] (setting [24]); greater than 84 µM in the assay on Pichia kudriavzevii; 20.9 µM (≈ 7.78 µg/mL) with Candida parapsilosis [11]; 20.9 µM (≈ 7.78 µg/mL) with Aspergillus nidulans. Moreover, the MIC came to 84 µM (≈ 31.3 µg/mL) against Aspergillus flavus; 41.9 µM (≈ 15.6 µg/mL) in the assay with Aspergillus terreus; 20.9 µM (≈ 7.78 µg/mL) in the assay with Nakaseomyces glabratus [12] (setting [25]); 20.9 µM (≈ 7.78 µg/mL) in the assay on Nakaseomyces glabratus [13] (setting [26]); 20.9 µM (≈ 7.78 µg/mL) in the assay with Nakaseomyces glabratus [14] (setting [25]); 10.5 µM (≈ 3.91 µg/mL) against Candida parapsilosis [15]. Further, the MIC was 10.5 µM (≈ 3.91 µg/mL) with Candida parapsilosis [16], 20.9 µM (≈ 7.78 µg/mL) against Cryptococcus neoformans [17], greater than 84 µM with Cryptococcus neoformans [18] (setting [27]) and 10.5 µM (≈ 3.91 µg/mL) against Candida parapsilosis [19].
